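Interpolation was linear, between the two tested concentrations surrounding the appropriate level; five concentrations were tested over 48 hours in 96-well plates. GI50 = concentration required for 50% inhibition of growth. Definition used: TGI = concentration required for complete inhibition of growth.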
Tests used:
Assay in all cases: NCI anticancer screen, dose series, 48 h
[1] = tested on: 786-0 renal
[2] = tested on: KM12 colon
[3] = tested on: SF-295 CNS
[4] = tested on: RPMI-8226 leukemia
[5] = tested on: OVCAR-4 ovarian
[6] = tested on: NCI-H522 lung
[7] = tested on: SK-MEL-5 melanoma
[8] = tested on: UACC-257 melanoma
[9] = tested on: SW-620 colon
[10] = tested on: HCT-116 colon
[11] = tested on: ACHN renal
[12] = tested on: SK-MEL-2 melanoma
[13] = tested on: HOP-92 NSCLC
[14] = tested on: K-562 leukemia
[15] = tested on: EKVX NSCLC
[16] = tested on: DMS 114 small cell lung
[17] = tested on: RXF 393 renal
[18] = tested on: NCI-H226 lung
[19] = tested on: HOP-62 NSCLC
[20] = tested on: U251 CNS
[21] = tested on: UACC-62 melanoma
[22] = tested on: IGROV1 ovarian
[23] = tested on: SNB-78 CNS
[24] = tested on: CCRF-CEM leukemia
[25] = tested on: LXFL 529 NSCLC
[26] = tested on: OVCAR-5 ovarian
[27] = tested on: DLD-1 colon
[28] = tested on: SF-539 CNS
[29] = tested on: COLO 205 colon
[30] = tested on: HCC-2998 colon
[31] = tested on: MOLT-4 leukemia
[32] = tested on: HT29 colon
[33] = tested on: SK-MEL-28 melanoma
[34] = tested on: NCI-H460 lung
[35] = tested on: SN12C renal
[36] = tested on: OVCAR-8 ovarian
[37] = tested on: SF-268 CNS
[38] = tested on: SR leukemia
[39] = tested on: M19-MEL melanoma
[40] = tested on: A549 NSCLC
[41] = tested on: UO-31 renal
[42] = tested on: CAKI-1 renal
[43] = tested on: SK-OV-3 ovarian
[44] = tested on: LOX IMVI melanoma
[45] = tested on: SNB-19 CNS
[46] = tested on: HCT-15 colon
[47] = tested on: M14 melanoma
[48] = tested on: NCI-H23 lung
[49] = tested on: A498 renal
[50] = tested on: OVCAR-3 ovarian
[51] = tested on: MALME-3M melanoma
[52] = tested on: DMS 273 small cell lung
[53] = tested on: TK-10 renal
[54] = tested on: KM20L2 colon
[55] = tested on: HL-60(TB) leukemia
[56] = tested on: SNB-75 CNS

O=C([O-])c1ccccc1Nc1ccccc1[O-].[Ni+3].[OH3+].[OH3+].[OH3+]
GI50 [1]: > 100 µM
TGI [1]: > 100 µM
GI50 [2]: > 100 µM
TGI [2]: > 100 µM
GI50 [3]: > 100 µM
TGI [3]: > 100 µM
GI50 [4]: > 100 µM
TGI [4]: > 100 µM
GI50 [5]: > 100 µM
TGI [5]: > 100 µM
GI50 [6]: > 100 µM
TGI [6]: > 100 µM
GI50 [7]: > 100 µM
TGI [7]: > 100 µM
GI50 [8]: > 100 µM
TGI [8]: > 100 µM
GI50 [9]: > 100 µM
TGI [9]: > 100 µM
GI50 [10]: > 100 µM
TGI [10]: > 100 µM
GI50 [11]: > 100 µM
TGI [11]: > 100 µM
GI50 [12]: > 100 µM
TGI [12]: > 100 µM
GI50 [13]: 31.4 µM
TGI [13]: > 100 µM
GI50 [14]: > 100 µM
TGI [14]: > 100 µM
GI50 [15]: > 100 µM
TGI [15]: > 100 µM
GI50 [16]: > 100 µM
TGI [16]: > 100 µM
GI50 [17]: > 100 µM
TGI [17]: > 100 µM
GI50 [18]: 88.4 µM
TGI [18]: > 100 µM
GI50 [19]: > 100 µM
TGI [19]: > 100 µM
GI50 [20]: > 100 µM
TGI [20]: > 100 µM
GI50 [21]: > 100 µM
TGI [21]: > 100 µM
GI50 [22]: > 100 µM
TGI [22]: > 100 µM
GI50 [23]: > 100 µM
TGI [23]: > 100 µM
GI50 [24]: > 100 µM
TGI [24]: > 100 µM
GI50 [25]: > 100 µM
TGI [25]: > 100 µM
GI50 [26]: > 100 µM
TGI [26]: > 100 µM
GI50 [27]: > 100 µM
TGI [27]: > 100 µM
GI50 [28]: > 100 µM
TGI [28]: > 100 µM
GI50 [29]: > 100 µM
TGI [29]: > 100 µM
GI50 [30]: > 100 µM
TGI [30]: > 100 µM
GI50 [31]: > 100 µM
TGI [31]: > 100 µM
GI50 [32]: > 100 µM
TGI [32]: > 100 µM
GI50 [33]: > 100 µM
TGI [33]: > 100 µM
GI50 [34]: > 100 µM
TGI [34]: > 100 µM
GI50 [35]: > 100 µM
TGI [35]: > 100 µM
GI50 [36]: > 100 µM
TGI [36]: > 100 µM
GI50 [37]: > 100 µM
TGI [37]: > 100 µM
GI50 [38]: > 100 µM
TGI [38]: > 100 µM
GI50 [39]: > 100 µM
TGI [39]: > 100 µM
GI50 [40]: > 100 µM
TGI [40]: > 100 µM
GI50 [41]: > 100 µM
TGI [41]: > 100 µM
GI50 [42]: > 100 µM
TGI [42]: > 100 µM
GI50 [43]: > 100 µM
TGI [43]: > 100 µM
GI50 [44]: > 100 µM
TGI [44]: > 100 µM
GI50 [45]: > 100 µM
TGI [45]: > 100 µM
GI50 [46]: > 100 µM
TGI [46]: > 100 µM
GI50 [47]: > 100 µM
TGI [47]: > 100 µM
GI50 [48]: > 100 µM
TGI [48]: > 100 µM
GI50 [49]: > 100 µM
TGI [49]: > 100 µM
GI50 [50]: > 100 µM
TGI [50]: > 100 µM
GI50 [51]: > 100 µM
TGI [51]: > 100 µM

Cc1ccc(C(=O)NC(C)(C)C)cc1N=NN(C)C
TGI [1]: > 100 µM
TGI [2]: > 100 µM
TGI [3]: > 100 µM
TGI [5]: > 100 µM
TGI [6]: > 100 µM
TGI [7]: > 100 µM
TGI [8]: > 100 µM
TGI [9]: > 100 µM
TGI [10]: > 100 µM
TGI [11]: > 100 µM
TGI [12]: > 100 µM
TGI [52]: > 100 µM
TGI [13]: > 100 µM
TGI [15]: > 100 µM
TGI [19]: > 100 µM
TGI [20]: > 100 µM
TGI [21]: > 100 µM
TGI [53]: > 100 µM
TGI [22]: > 100 µM
TGI [23]: > 100 µM
TGI [25]: > 100 µM
TGI [54]: > 100 µM
TGI [27]: > 100 µM
TGI [28]: > 100 µM
TGI [30]: > 100 µM
TGI [32]: > 100 µM
TGI [33]: > 100 µM
TGI [34]: > 100 µM
TGI [35]: > 100 µM
TGI [36]: > 100 µM
TGI [37]: > 100 µM
TGI [40]: > 100 µM
TGI [41]: > 100 µM
TGI [42]: > 100 µM
TGI [44]: > 100 µM
TGI [45]: > 100 µM
TGI [46]: > 100 µM
TGI [47]: > 100 µM
TGI [48]: > 100 µM
TGI [50]: > 100 µM

CCSc1nc2n(c(=S)n1)CCN2C
TGI [1]: 52 µM
TGI [2]: 52.3 µM
TGI [3]: 41.2 µM
TGI [4]: 61.7 µM
TGI [5]: 44.5 µM
TGI [6]: 19.3 µM
TGI [7]: 30 µM
TGI [8]: 25.5 µM
TGI [9]: 56.9 µM
TGI [10]: 33.7 µM
TGI [11]: 60.6 µM
TGI [12]: 41.7 µM
TGI [52]: 33.6 µM
TGI [14]: 79.5 µM
TGI [15]: 69.6 µM
TGI [16]: 39.4 µM
TGI [17]: 23.7 µM
TGI [18]: 42.8 µM
TGI [19]: 68.8 µM
TGI [20]: 41.2 µM
TGI [21]: 25.8 µM
TGI [22]: 45.9 µM
TGI [25]: 29.5 µM
TGI [54]: 52.9 µM
TGI [26]: 42.7 µM
TGI [28]: 58.9 µM
TGI [55]: 46.1 µM
TGI [30]: 30.3 µM
TGI [31]: 39.1 µM
TGI [32]: 37.2 µM
TGI [33]: 41.3 µM
TGI [34]: 39.7 µM
TGI [35]: 47.8 µM
TGI [36]: 64.7 µM
TGI [37]: 65.8 µM
TGI [38]: 29.9 µM
TGI [39]: 29.4 µM
TGI [40]: 61.3 µM
TGI [41]: 58.9 µM
TGI [42]: 55.4 µM
TGI [43]: 50.2 µM
TGI [44]: 34.8 µM
TGI [45]: 37.8 µM
TGI [46]: 40.6 µM
TGI [47]: 31.5 µM
TGI [49]: 47.5 µM
TGI [56]: 30.8 µM
TGI [50]: 49.3 µM
TGI [51]: 36.2 µM

— PubChem BioAssay (NCI)
